From ChEMBL document CHEMBL5523738, “Lipid Trolling to Optimize A3 Adenosine Receptor-Positive Allosteric Modulators (PAMs)” (J Med Chem, 2024)
Activity calls are given as the source filed them. The calls are words filed in the database; no cut-off is given here.

What was measured:
[1] = biological target: T1, Adenosine receptor A3 (Homo sapiens) (UniProt P0DMS8); test: (§1) Antagonist activity at human A3 adenosine receptor transfected in HEK293 cell membranes assessed as rightward shift in 5-(2-chloro-6-((3-iodobenzyl)amino)-9H-purin-9-yl)-3,4-dihydroxy-N-methyltetrahydrofuran-2-carboxamide activation curve at 10 uM pretreated for 1 hr followed by agonist addition and measured after 2 hrs by liquid scintillation counting method; type: functional; conditions: Membrane, time 3.0 hrs
T1 sequence (whole entry): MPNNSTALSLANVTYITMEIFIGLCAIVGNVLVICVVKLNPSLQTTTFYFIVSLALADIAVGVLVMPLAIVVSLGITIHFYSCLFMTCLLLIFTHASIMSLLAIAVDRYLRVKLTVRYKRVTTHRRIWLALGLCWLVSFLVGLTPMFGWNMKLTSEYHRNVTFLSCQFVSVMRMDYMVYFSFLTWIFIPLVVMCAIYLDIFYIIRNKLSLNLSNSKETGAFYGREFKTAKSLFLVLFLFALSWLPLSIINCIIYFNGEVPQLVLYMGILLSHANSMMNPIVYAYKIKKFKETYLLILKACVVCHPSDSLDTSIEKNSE

Homo sapiens = organism: Homo sapiens; test: Binding affinity to BZP receptor (unknown origin)
[2] = biological target: T1, Adenosine receptor A3 (Homo sapiens); test: Positive allosteric modulation of human A3 adenosine receptor transfected in HEK293 cell membranes assessed as potentiation of MRS5698 induced ERK activation at 3 uM; conditions: Membrane
[3] = biological target: Beta-2 adrenergic receptor (Homo sapiens) (UniProt P07550); test: Binding affinity to beta2 adrenergic receptor (unknown origin)
Sequence of Beta-2 adrenergic receptor (Homo sapiens) (P07550 whole entry, looked up): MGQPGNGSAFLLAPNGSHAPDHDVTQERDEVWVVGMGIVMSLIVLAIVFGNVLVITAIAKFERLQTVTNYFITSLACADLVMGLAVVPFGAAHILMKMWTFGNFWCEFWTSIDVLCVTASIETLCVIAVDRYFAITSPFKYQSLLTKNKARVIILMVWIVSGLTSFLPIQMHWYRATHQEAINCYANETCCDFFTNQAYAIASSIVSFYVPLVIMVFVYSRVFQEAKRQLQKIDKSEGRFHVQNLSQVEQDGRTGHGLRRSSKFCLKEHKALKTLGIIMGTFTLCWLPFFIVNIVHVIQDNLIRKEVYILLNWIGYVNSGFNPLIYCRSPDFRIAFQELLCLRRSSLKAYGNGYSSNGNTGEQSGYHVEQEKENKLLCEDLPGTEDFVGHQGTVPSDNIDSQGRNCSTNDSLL

[4] = biological target: Histamine H2 receptor (Homo sapiens) (UniProt P25021); test: Binding affinity to histamine H2 receptor (unknown origin)
[5] = biological target: Muscarinic acetylcholine receptor M4 (Homo sapiens) (UniProt P08173); test: Binding affinity to M4 receptor (unknown origin)
Sequence of Muscarinic acetylcholine receptor M4 (Homo sapiens) (P08173 whole entry): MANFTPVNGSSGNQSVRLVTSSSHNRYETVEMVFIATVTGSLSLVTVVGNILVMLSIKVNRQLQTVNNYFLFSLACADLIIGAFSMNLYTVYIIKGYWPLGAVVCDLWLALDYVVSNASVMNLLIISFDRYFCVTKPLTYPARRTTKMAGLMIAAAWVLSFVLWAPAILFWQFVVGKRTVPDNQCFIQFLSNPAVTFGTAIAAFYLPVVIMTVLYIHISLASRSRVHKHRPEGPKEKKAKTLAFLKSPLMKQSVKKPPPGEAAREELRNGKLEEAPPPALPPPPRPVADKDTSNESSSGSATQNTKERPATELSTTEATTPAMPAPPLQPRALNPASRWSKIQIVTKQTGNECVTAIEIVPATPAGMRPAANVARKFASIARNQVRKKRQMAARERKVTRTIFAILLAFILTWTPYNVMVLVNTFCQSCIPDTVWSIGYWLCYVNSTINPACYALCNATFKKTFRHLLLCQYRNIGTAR

[6] = biological target: T1, Adenosine receptor A3 (Homo sapiens); test: (§2) Positive allosteric modulation of human A3 adenosine receptor transfected in HEK293 cell membranes assessed as slow down of [125I]I-AB-MECA dissociation rate at 10 uM preincubated with radioligand for 3 hrs followed by NECA and compound addition and measured after 60 mins by gamma counter method; conditions: Membrane, filed as positive allosteric modulator
[7] = biological target: Muscarinic acetylcholine receptor M1 (Homo sapiens) (UniProt P11229); test: Binding affinity to M1 receptor (unknown origin)
Sequence of Muscarinic acetylcholine receptor M1 (Homo sapiens) (P11229 whole entry): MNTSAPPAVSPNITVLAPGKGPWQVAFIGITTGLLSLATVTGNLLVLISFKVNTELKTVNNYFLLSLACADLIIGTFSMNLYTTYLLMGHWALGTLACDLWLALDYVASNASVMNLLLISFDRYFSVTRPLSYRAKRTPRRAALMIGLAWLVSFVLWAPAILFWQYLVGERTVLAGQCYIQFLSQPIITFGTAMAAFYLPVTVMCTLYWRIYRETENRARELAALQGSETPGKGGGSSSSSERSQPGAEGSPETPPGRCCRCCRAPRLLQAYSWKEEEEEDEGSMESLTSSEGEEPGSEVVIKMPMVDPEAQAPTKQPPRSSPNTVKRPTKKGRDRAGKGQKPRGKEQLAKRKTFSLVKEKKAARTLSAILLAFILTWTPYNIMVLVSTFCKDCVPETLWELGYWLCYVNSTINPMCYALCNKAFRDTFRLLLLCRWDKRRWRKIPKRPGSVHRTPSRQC

[8] = biological target: T1, Adenosine receptor A3 (Homo sapiens); test: Positive allosteric modulation of human A3 adenosine receptor transfected in HEK293 cell membranes assessed as potentiation of 5-(2-chloro-6-((3-iodobenzyl)amino)-9H-purin-9-yl)-3,4-dihydroxy-N-methyltetrahydrofuran-2-carboxamide induced [35S]GTP-gammaS binding by measuring fold increase in agonist …; conditions: Membrane, filed as positive allosteric modulator, dose 1.0 µM, time 3.0 hrs
[9] = biological target: T2, Adenosine receptor A3 (Mus musculus) (UniProt Q61618); test: as §2, with “full length mouse” for “human”, “reduction in” for “slow down of”, “0.1” for “10”, “upto 180” for “after 60”; conditions: Membrane
T2 sequence (whole entry): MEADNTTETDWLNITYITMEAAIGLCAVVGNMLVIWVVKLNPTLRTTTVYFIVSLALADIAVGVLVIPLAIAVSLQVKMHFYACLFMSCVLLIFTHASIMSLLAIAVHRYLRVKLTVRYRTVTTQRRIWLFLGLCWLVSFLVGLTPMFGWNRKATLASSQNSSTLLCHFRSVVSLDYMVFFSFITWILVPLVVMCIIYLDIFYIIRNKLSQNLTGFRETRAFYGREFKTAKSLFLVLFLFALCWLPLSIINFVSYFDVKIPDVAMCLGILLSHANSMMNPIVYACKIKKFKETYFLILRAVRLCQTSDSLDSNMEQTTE

[10] = biological target: T1, Adenosine receptor A3 (Homo sapiens); test: Positive allosteric modulation of human A3 adenosine receptor transfected in HEK293 cell membranes assessed as potentiation of MRS5698 induced inhibition of cAMP formation by measuring fold increase in agonist potency at 3 uM relative to control; type: functional; conditions: Membrane, filed as positive allosteric modulator
[11] = biological target: T1, Adenosine receptor A3 (Homo sapiens); test: (§3) Positive allosteric modulation of human A3 adenosine receptor transfected in HEK293 cell membranes assessed as potentiation of 5-(2-chloro-6-((3-iodobenzyl)amino)-9H-purin-9-yl)-3,4-dihydroxy-N-methyltetrahydrofuran-2-carboxamide induced [35S]GTP-gammaS binding by measuring maximal efficacy of agonist at 0.001 uM pretreated for 1 hr followed by agonist addition and measured after 2 hrs by liquid scintillation counting method (reference value: 100 +/- 3%); conditions: Membrane, filed as positive allosteric modulator, time 3.0 hrs
[12] = biological target: T1, Adenosine receptor A3 (Homo sapiens); test: Positive allosteric modulation of human A3 adenosine receptor transfected in HEK293 cell membranes assessed as potentiation of NECA induced ERK activation at 3 uM; conditions: Membrane
[13] = biological target: Alpha-1D adrenergic receptor (Homo sapiens) (UniProt P25100); test: Binding affinity to alpha1D adrenergic receptor (unknown origin)
[14] = biological target: T1, Adenosine receptor A3 (Homo sapiens); test: Positive allosteric modulation of human A3 adenosine receptor transfected in HEK293 cell membranes assessed as potentiation of MRS5698 induced inhibition of cAMP formation by measuring maximal efficacy of agonist at 3 uM (reference value: 100%); type: functional; conditions: Membrane, filed as positive allosteric modulator
[15] = biological target: D(1A) dopamine receptor (Homo sapiens) (UniProt P21728); test: Binding affinity to D1 receptor (unknown origin)
Sequence of D(1A) dopamine receptor (Homo sapiens) (P21728 whole entry): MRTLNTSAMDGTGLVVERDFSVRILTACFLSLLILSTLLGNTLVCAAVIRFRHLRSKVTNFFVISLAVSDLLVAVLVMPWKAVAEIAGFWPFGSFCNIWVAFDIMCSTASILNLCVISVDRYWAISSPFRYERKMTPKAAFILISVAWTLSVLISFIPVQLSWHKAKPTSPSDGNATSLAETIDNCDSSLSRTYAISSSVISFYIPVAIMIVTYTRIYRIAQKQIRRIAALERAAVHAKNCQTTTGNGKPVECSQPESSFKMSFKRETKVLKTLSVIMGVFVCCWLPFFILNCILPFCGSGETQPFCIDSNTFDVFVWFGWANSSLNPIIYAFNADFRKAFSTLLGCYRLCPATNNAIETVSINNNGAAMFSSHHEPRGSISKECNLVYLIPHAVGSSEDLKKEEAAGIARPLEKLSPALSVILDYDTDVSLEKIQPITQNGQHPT

[16] = biological target: 5-hydroxytryptamine receptor 5A (Homo sapiens) (UniProt P47898); test: Binding affinity to 5-HT5A (unknown origin)
Sequence of 5-hydroxytryptamine receptor 5A (Homo sapiens) (P47898 whole entry): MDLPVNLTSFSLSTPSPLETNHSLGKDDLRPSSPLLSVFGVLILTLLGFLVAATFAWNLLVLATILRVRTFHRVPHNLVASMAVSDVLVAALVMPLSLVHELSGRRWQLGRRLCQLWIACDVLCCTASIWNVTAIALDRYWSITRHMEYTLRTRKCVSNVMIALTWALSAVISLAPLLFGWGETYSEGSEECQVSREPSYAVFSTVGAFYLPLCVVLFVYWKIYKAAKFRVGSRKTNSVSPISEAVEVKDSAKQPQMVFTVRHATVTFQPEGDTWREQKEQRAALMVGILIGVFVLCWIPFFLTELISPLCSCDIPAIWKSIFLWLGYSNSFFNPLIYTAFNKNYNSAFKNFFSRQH

[17] = biological target: Delta-type opioid receptor (Homo sapiens) (UniProt P41143); test: Binding affinity to DOR (unknown origin)
[18] = biological target: 5-hydroxytryptamine receptor 1E (Homo sapiens) (UniProt P28566); test: Binding affinity to 5-HT1E (unknown origin)
Sequence of 5-hydroxytryptamine receptor 1E (Homo sapiens) (P28566 whole entry): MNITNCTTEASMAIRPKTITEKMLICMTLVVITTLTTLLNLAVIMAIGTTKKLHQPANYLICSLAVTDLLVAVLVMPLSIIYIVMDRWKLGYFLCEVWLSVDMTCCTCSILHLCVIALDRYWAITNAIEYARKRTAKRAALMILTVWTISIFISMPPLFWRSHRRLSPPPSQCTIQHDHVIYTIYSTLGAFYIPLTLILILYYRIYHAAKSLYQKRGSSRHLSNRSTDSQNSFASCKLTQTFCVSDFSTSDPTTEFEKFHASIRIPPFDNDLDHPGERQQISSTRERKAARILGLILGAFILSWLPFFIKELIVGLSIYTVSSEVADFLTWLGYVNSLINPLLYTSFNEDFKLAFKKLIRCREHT

[19] = biological target: T2, Adenosine receptor A3 (Mus musculus); test: Orthosteric antagonist activity at full length mouse A3 adenosine receptor transfected in HEK293 cell membranes assessed as inhibition of [125I]I-AB-MECA binding at equilibrium at 10 uM by gamma counter method; conditions: Membrane, filed as antagonist
[20] = biological target: Alpha-1A adrenergic receptor (Homo sapiens) (UniProt P35348); test: Binding affinity to alpha1A adrenergic receptor (unknown origin)
Sequence of Alpha-1A adrenergic receptor (Homo sapiens) (P35348 whole entry): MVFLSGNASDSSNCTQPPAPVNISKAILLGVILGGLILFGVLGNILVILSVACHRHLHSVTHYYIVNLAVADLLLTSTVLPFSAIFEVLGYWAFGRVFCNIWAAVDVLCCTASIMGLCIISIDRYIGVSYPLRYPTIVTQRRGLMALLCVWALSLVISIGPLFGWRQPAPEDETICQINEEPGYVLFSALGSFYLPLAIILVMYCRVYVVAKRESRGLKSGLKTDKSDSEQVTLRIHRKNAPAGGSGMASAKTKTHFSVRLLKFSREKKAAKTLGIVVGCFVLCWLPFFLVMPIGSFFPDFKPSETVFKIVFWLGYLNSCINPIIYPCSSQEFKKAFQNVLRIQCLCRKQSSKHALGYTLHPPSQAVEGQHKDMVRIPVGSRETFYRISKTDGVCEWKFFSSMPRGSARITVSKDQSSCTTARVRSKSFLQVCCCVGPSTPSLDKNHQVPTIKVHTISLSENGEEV

[21] = biological target: 5-hydroxytryptamine receptor 3A (Homo sapiens) (UniProt P46098); test: Binding affinity to 5-HT3 (unknown origin)
Sequence of 5-hydroxytryptamine receptor 3A (Homo sapiens) (P46098 whole entry): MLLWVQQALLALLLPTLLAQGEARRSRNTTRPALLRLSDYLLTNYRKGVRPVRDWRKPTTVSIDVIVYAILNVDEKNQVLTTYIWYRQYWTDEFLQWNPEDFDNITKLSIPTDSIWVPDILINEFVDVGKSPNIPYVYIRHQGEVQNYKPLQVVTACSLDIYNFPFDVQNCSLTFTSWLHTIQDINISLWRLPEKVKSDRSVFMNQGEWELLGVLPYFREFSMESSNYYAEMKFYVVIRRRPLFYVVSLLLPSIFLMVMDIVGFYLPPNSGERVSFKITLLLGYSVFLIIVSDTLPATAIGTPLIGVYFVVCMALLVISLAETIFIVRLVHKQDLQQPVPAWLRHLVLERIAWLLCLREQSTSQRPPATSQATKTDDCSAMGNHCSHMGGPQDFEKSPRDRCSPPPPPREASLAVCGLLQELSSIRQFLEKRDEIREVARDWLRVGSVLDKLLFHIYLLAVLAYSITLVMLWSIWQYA

[22] = biological target: Adenosine receptor A1 (Homo sapiens) (UniProt P30542); test: Positive allosteric modulation of human A1 adenosine receptor transfected in HEK293 cells assessed as potentiation of […] induced inhibition of cAMP formation at 3 uM; type: functional, cell-based
[23] = biological target: T1, Adenosine receptor A3 (Homo sapiens); test: as §3, with “0.01” for “0.001”; conditions: Membrane, filed as positive allosteric modulator, time 3.0 hrs
[24] = biological target: T2, Adenosine receptor A3 (Mus musculus); test: (§4) Positive allosteric modulation of full length mouse A3 adenosine receptor transfected in HEK293 cell membranes assessed as reduction in [125I]I-AB-MECA dissociation rate at 1 to 10 uM preincubated with radioligand for 3 hrs followed by NECA and compound addition and measured upto 180 mins by gamma counter method; conditions: Membrane, filed as positive allosteric modulator, dose 1-10 µM
[25] = biological target: GABA-A receptor; anion channel (Homo sapiens) (UniProt P14867+P47870+P18507+P28472+P48169+Q99928+Q9UN88+P34903+O00591+O14764+Q8N1C3+P18505+P78334+P47869+P31644+Q16445); test: Binding affinity to GABA-A receptor (unknown origin); type: protein-complex assay
[26] = biological target: D(2) dopamine receptor (Homo sapiens) (UniProt P14416); test: Binding affinity to D2 receptor (unknown origin)
[27] = biological target: Kappa-type opioid receptor (Homo sapiens) (UniProt P41145); test: Binding affinity to KOR (unknown origin)
Sequence of Kappa-type opioid receptor (Homo sapiens) (P41145 whole entry): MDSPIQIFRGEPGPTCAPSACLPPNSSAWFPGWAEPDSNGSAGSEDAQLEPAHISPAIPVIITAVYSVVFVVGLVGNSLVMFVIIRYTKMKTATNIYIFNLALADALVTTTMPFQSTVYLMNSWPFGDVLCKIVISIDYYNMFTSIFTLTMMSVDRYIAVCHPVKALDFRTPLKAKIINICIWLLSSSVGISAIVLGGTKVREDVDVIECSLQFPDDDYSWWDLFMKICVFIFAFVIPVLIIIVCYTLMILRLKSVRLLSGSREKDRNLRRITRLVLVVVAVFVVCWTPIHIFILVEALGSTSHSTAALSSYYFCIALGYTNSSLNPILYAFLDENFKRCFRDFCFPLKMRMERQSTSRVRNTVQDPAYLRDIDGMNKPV

[28] = biological target: Muscarinic acetylcholine receptor M2 (Homo sapiens) (UniProt P08172); test: Binding affinity to M2 receptor (unknown origin)
Sequence of Muscarinic acetylcholine receptor M2 (Homo sapiens) (P08172 whole entry): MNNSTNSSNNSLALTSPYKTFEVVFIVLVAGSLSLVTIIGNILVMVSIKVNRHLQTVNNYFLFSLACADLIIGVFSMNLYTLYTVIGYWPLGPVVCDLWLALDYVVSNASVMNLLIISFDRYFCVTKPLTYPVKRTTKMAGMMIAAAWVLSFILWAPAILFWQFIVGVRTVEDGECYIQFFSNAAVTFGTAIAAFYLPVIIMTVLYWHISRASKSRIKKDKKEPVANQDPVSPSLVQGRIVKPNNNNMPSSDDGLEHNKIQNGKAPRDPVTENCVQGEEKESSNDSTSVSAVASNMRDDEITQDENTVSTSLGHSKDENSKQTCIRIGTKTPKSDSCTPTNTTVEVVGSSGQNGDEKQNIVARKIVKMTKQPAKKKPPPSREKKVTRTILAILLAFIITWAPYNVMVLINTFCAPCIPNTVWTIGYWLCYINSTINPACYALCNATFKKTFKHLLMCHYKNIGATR

[29] = biological target: Beta-3 adrenergic receptor (Homo sapiens) (UniProt P13945); test: Binding affinity to beta3 adrenergic receptor (unknown origin)
Sequence of Beta-3 adrenergic receptor (Homo sapiens) (P13945 whole entry, looked up): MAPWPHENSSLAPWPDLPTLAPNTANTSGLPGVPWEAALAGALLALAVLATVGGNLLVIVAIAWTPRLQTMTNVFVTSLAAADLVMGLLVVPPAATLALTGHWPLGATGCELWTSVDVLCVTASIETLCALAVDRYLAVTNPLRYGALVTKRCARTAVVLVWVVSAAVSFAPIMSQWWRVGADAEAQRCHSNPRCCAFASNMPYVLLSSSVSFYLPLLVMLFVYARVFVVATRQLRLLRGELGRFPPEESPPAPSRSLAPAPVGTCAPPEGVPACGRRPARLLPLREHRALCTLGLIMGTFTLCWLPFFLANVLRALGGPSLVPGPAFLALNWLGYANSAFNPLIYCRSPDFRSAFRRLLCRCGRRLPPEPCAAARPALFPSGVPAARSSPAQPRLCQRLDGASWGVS

[30] = biological target: Mu-type opioid receptor (Homo sapiens) (UniProt P35372); test: Binding affinity to MOR (unknown origin)
[31] = biological target: T2, Adenosine receptor A3 (Mus musculus); test: as §4, with “slow down of” for “reduction in”, “at” for “at 1 to”; conditions: Membrane, filed as positive allosteric modulator
[32] = biological target: T1, Adenosine receptor A3 (Homo sapiens); test: as §1, with “curve” for “curve at 10 uM”; type: functional; conditions: Membrane, filed as antagonist, time 3.0 hrs
[33] = biological target: T1, Adenosine receptor A3 (Homo sapiens); test: Orthosteric antagonist activity at human A3 adenosine receptor transfected in HEK293 cell membranes assessed as inhibition of [125I]I-AB-MECA binding at equilibrium at 10 uM measured for 18 hrs by gamma counter method; conditions: Membrane, filed as antagonist

In the case of Clc1ccc(Nc2nc3ccccc3c3sc(C4CCCCC4)nc23)cc1Cl, the Activity [1] is reported as “inactive”.

CCCC(CCC)c1nc2c(Nc3ccc(C#CCCCCCCCCN)cc3)nc3ccccc3c2[nH]1 was tested, and the Activity (Homo sapiens) was “inactive”, the Activity [2] was “inactive” and the Activity [3] was “inactive”. The Activity [4] was “inactive”, the Activity [5] was “inactive” and the Activity [6] was “Active”. For the same compound, the Activity [7] was “inactive”, the fold change (FC) [8] was 4 and the Activity [9] was “inactive”. For the same compound, the fold change (FC) [10] was 9, the Emax [11] was 112% and the Activity [12] was “inactive”. For the same compound, the Activity [13] was “inactive”, the Emax [14] was 117% and the Activity [15] was “inactive”. The Activity [16] was “inactive”, the Activity [17] was “inactive” and the Activity [18] was “inactive”. The Activity [19] was “Active”, the Activity [20] was “inactive” and the Activity [21] was “inactive”. The Activity [22] was “inactive”, the Emax [23] was 157% and the Activity [24] was “Active”. For the same compound, the Activity [25] was “inactive”, the Activity [26] was “inactive” and the Activity [27] was “inactive”. The Activity [28] was “inactive”, the Activity [29] was “inactive” and the Activity [30] was “inactive”.

In the case of CCCC(CCC)c1nc2c(Nc3ccc(C#CCCCCCN)cc3)nc3ccccc3c2[nH]1, the Activity [31] is reported as “Active” and the Activity [19] is reported as “Active”.

CCCC(CCC)c1nc2c(Nc3ccc(C#CCCCCCCCCN=C(N)N)cc3)nc3ccccc3c2[nH]1 was tested, and the fold change (FC) [8] was 9.5.

CCCC(CCC)c1nc2c(Nc3ccc(C#CCCCCCCCCCN)cc3)nc3ccccc3c2[nH]1 was tested, and the Activity (Homo sapiens) was “inactive”, the Activity [31] was “Active” and the Activity [3] was “inactive”. The Activity [4] was “inactive”, the Activity [5] was “inactive” and the Activity [7] was “inactive”. The fold change (FC) [8] was 4, the Activity [13] was “inactive” and the Activity [15] was “inactive”. The Activity [16] was “inactive”, the Activity [17] was “inactive” and the Activity [18] was “inactive”. For the same compound, the Activity [19] was “Active”, the Activity [20] was “inactive” and the Activity [21] was “inactive”. The Activity [25] was “inactive”, the Activity [26] was “inactive” and the Activity [27] was “inactive”. The Activity [28] was “inactive”, the Activity [29] was “inactive” and the Activity [30] was “inactive”.

In the case of Clc1ccc(Nc2nc3ccccc3c3nc(C4CCCCC4)oc23)cc1Cl, the Activity [32] is reported as “Active” and the Activity [33] is reported as “Active”.

For OCCn1c(C2CCCCC2)nc2c(Nc3ccc(Cl)c(Cl)c3)nc3ccccc3c21, the Activity [33] was “Active”.

In the case of CCCC(CCC)c1nc2c(Oc3ccccc3)nc3ccccc3c2[nH]1, the Activity [6] is reported as “Active” and the Activity [33] is reported as “Active”.

Work on CCCC(CCC)c1nc2c(Nc3ccc(C#CCCCCCCCCNCCCCN)cc3)nc3ccccc3c2[nH]1 yielded a fold change (FC) [8] of 12.

For Clc1ccc(Nc2nc3ccccc3c3nc(C4CCCCC4)sc23)cc1Cl, the Activity [6] was “Active” and the Activity [32] was “Active”.

With CCCC(CCC)c1nc2c(Sc3ccc(Cl)c(Cl)c3)nc3ccccc3c2[nH]1 the Activity [6] was “Active” and the Activity [33] was “Active”.

CCCC(CCC)c1nc2c(Nc3ccc(C#CCCCCCCCCCN4CCCC4)cc3)nc3ccccc3c2[nH]1 was tested, and the fold change (FC) [8] was 4.

In the case of CCCC(CCC)c1nc2c(Nc3ccc(C#CCCCN)cc3)nc3ccccc3c2[nH]1, the Activity [31] is reported as “Active”.

CCCC(CCC)c1nc2c(Nc3ccc(C#CCCCCCCCN)cc3)nc3ccccc3c2[nH]1 was tested, and the Activity [31] was “Active”, the fold change (FC) [8] was 7.4 and the Activity [19] was “Active”.

In the case of CCCC(CCC)c1nc2c(Nc3ccc(C#CCCN)cc3)nc3ccccc3c2[nH]1, the Activity [31] is reported as “Active”.
